{"source": "paper PMC2110886", "about": "(PLoS ONE, 2007)", "origin": "cited, not measured here", "system": "Seasonal influenza strains", "design": "method as in PMID 15709056", "conditions": "in children; cited from earlier work"}
{"smiles": "CCOC(=O)C1=C[C@@H](OC(CC)CC)[C@H](NC(C)=O)[C@@H](N)C1", "note": "[Oseltamivir, oseltamivir, reference compound]", "values": [{"measurement": "rate of resistance to oseltamivir", "value": 4, "unit": "%"}]}
